Measurements reported in PMC11167047 (Cell Death Discovery, 2024).

Tests used:
Test in all cases: kinome screen (33PanQinase)
Format in all cases: biochemical
[1] = target: T1, CDK16/CycY (Homo sapiens, UniProt Q00536)
T1 construct: purchased Reaction Biology Europe GmbH (formerly ProQinase)
Method: (§1) The Kinome Screening was performed by Reaction Biology Europe GmbH (http://reactionbiology.com; Freiburg i. Br., Germany).

[2] = target: T2, CDK20/CycH (Homo sapiens, UniProt Q8IZL9)
T2 construct: purchased Reaction Biology Europe GmbH (formerly ProQinase)
Method: as §1

[3] = target: T3, CDK4/CycD3 (Homo sapiens, UniProt P11802)
T3 construct: purchased Reaction Biology Europe GmbH (formerly ProQinase)
Method: as §1

[4] = target: T4, FLT3 (Homo sapiens, UniProt P36888)
T4 construct: purchased Reaction Biology Europe GmbH (formerly ProQinase)
T4 sequence (P36888 27-993): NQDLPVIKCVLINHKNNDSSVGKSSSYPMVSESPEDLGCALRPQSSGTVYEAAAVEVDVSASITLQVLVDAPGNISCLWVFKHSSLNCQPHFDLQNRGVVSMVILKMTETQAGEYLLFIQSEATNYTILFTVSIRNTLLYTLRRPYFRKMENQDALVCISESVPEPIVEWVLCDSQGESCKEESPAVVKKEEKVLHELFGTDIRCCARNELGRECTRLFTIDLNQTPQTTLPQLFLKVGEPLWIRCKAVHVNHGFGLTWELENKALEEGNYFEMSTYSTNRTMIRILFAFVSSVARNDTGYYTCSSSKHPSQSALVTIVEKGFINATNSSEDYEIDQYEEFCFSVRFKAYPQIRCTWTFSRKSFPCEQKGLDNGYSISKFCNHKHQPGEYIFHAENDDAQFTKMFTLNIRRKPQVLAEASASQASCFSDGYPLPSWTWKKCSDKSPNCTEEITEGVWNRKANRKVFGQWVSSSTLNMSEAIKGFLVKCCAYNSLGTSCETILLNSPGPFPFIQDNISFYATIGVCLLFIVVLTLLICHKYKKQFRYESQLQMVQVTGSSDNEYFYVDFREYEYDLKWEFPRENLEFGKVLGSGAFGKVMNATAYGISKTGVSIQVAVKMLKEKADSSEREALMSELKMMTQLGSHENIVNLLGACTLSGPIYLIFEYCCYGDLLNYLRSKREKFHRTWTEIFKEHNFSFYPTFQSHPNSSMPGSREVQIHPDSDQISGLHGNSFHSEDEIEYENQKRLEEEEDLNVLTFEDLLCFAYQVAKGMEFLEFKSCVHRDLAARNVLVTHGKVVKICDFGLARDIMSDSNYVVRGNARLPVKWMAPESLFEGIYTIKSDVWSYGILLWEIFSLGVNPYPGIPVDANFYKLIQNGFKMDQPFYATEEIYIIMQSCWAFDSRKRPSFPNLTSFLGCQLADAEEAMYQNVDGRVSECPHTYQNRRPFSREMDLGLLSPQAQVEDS
Method: as §1

[5] = target: T5, HIPK1 (Homo sapiens, UniProt Q86Z02)
T5 construct: purchased Reaction Biology Europe GmbH (formerly ProQinase)
Method: as §1

[6] = target: T6, IKKε (Homo sapiens, UniProt Q14164)
T6 construct: purchased Reaction Biology Europe GmbH (formerly ProQinase)
T6 sequence (Q14164 1-716): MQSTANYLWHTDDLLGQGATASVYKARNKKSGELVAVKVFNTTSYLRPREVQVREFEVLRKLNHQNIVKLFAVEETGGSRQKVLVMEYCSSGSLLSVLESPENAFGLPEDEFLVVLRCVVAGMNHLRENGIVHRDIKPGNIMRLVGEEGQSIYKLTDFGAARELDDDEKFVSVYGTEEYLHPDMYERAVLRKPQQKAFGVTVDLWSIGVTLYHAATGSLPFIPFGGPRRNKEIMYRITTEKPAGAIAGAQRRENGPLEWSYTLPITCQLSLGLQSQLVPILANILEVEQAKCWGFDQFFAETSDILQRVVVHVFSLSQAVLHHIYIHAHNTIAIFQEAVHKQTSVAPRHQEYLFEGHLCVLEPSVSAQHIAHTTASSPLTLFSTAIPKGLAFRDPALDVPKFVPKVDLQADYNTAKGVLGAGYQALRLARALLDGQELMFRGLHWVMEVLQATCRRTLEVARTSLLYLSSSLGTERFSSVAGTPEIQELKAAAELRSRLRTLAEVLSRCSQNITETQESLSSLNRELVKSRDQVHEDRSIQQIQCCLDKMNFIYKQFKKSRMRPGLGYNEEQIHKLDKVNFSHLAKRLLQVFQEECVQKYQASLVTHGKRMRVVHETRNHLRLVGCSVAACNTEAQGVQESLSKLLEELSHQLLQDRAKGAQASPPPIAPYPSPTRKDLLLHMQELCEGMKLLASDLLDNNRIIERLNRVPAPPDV
Method: as §1

[7] = target: T7, LTK (Homo sapiens, UniProt P29376)
T7 construct: purchased Reaction Biology Europe GmbH (formerly ProQinase)
Method: as §1

[8] = target: T8, MAP4K5 (Homo sapiens, UniProt Q9Y4K4)
T8 construct: purchased Reaction Biology Europe GmbH (formerly ProQinase)
Method: as §1

[9] = target: T9, PAK4 (Homo sapiens, UniProt O96013)
T9 construct: purchased Reaction Biology Europe GmbH (formerly ProQinase)
Method: as §1

[10] = target: T10, PIM1 (Homo sapiens, UniProt P11309)
T10 construct: purchased Reaction Biology Europe GmbH (formerly ProQinase)
Method: as §1

[11] = target: T11, SGK1 (Homo sapiens, UniProt O00141)
T11 construct: purchased Reaction Biology Europe GmbH (formerly ProQinase)
T11 sequence (O00141 1-431): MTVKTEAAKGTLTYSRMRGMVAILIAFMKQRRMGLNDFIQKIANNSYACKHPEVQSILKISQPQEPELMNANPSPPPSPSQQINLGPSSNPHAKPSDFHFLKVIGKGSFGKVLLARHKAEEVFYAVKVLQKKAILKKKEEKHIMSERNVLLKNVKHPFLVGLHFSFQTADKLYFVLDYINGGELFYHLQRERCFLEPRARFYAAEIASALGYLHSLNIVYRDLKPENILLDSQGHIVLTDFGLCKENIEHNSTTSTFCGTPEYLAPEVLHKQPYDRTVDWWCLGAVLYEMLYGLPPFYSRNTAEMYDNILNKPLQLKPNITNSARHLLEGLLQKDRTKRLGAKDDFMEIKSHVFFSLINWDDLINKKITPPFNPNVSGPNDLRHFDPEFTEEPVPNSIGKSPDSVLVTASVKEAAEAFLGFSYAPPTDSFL
Method: as §1

T9 sequence (O96013 whole entry): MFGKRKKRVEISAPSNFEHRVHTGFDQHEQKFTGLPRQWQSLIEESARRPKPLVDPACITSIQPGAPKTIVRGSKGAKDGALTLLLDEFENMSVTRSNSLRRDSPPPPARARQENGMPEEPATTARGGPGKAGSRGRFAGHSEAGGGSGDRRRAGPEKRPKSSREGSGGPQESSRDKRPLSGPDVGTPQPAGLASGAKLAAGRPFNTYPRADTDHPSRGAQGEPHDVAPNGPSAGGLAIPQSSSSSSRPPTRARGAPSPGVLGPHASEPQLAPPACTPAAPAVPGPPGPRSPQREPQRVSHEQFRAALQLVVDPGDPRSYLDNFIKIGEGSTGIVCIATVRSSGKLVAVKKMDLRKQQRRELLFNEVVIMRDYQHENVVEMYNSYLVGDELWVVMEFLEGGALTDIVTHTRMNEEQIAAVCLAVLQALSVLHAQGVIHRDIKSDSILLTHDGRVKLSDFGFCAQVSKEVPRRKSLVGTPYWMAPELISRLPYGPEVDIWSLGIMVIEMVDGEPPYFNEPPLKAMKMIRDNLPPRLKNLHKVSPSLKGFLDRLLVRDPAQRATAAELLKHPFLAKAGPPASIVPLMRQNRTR
T2 sequence (Q8IZL9 whole entry): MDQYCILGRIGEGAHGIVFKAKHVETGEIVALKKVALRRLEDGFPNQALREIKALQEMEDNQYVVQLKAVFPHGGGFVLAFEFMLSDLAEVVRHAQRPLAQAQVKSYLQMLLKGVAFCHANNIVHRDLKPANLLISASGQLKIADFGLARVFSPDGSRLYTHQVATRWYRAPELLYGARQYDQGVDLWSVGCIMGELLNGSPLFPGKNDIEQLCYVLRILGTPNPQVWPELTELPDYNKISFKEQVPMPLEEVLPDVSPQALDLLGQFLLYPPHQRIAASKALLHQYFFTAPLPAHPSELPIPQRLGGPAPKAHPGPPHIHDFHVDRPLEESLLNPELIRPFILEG
T2 sequence (P51946 whole entry partner): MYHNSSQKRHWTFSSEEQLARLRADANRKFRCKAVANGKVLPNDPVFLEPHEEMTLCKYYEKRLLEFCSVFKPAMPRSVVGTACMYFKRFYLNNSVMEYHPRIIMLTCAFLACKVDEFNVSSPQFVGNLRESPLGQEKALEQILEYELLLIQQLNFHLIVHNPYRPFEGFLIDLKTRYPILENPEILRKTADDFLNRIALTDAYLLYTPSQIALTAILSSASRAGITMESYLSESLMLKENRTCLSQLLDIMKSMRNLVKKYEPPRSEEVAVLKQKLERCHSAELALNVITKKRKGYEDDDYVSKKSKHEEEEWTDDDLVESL
T1 sequence (Q00536 whole entry): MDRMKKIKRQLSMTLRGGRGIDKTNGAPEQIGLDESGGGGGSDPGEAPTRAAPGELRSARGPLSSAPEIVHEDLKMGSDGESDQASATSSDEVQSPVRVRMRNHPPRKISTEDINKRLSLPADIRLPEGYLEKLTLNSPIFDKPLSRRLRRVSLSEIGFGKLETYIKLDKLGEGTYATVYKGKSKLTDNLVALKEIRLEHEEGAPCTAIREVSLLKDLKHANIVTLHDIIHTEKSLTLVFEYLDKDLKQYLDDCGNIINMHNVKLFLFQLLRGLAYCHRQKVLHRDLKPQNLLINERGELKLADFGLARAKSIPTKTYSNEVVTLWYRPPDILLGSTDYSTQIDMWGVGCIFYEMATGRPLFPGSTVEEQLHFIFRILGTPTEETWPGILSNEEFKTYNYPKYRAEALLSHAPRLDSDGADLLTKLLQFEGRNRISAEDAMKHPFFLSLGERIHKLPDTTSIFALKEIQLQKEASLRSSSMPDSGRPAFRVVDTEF
T1 sequence (Q8ND76 whole entry partner): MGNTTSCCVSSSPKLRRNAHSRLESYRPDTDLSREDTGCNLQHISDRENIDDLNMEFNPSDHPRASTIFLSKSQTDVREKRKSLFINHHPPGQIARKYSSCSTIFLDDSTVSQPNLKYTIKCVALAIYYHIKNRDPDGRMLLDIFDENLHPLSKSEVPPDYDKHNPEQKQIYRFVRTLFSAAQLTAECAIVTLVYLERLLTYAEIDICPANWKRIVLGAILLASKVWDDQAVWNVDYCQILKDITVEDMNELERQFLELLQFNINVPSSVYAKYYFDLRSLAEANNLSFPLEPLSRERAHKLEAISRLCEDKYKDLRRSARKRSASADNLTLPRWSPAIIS
T3 sequence (P11802 whole entry): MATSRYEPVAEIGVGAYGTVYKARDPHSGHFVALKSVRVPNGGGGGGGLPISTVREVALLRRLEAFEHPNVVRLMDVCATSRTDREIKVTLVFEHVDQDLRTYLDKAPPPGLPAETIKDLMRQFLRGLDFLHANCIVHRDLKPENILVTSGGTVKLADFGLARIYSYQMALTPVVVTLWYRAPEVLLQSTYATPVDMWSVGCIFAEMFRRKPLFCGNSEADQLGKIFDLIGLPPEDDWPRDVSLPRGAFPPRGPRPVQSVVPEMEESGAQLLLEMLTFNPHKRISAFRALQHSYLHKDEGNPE
T3 sequence (P30281 whole entry partner): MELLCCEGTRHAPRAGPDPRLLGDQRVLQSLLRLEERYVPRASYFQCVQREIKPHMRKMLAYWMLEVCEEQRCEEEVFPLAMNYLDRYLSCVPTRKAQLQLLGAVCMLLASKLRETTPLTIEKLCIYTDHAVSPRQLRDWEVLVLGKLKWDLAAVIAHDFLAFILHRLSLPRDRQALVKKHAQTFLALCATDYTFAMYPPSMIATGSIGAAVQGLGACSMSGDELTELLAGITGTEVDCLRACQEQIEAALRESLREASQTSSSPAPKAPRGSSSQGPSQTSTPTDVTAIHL
T8 sequence (Q9Y4K4 whole entry): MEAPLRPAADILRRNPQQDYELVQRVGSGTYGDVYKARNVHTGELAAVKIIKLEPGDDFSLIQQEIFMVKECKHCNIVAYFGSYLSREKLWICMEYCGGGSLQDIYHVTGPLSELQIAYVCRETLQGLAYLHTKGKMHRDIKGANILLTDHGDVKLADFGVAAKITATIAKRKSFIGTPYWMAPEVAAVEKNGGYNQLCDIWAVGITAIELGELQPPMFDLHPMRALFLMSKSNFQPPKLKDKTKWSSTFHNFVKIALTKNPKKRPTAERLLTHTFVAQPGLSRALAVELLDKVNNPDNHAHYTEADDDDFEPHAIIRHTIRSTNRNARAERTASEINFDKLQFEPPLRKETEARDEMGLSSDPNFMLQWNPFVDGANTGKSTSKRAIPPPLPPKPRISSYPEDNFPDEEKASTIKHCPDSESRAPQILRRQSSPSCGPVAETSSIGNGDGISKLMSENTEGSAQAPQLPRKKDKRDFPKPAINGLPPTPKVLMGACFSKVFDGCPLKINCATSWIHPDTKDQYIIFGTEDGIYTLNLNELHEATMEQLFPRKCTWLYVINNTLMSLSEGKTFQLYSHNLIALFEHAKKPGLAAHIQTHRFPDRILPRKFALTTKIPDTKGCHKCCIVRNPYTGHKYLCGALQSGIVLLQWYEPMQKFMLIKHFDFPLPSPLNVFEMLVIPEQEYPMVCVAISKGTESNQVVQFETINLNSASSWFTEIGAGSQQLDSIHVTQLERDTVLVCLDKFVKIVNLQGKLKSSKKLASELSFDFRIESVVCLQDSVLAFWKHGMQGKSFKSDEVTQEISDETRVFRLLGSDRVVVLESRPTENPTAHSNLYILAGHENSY
T7 sequence (P29376 17-864): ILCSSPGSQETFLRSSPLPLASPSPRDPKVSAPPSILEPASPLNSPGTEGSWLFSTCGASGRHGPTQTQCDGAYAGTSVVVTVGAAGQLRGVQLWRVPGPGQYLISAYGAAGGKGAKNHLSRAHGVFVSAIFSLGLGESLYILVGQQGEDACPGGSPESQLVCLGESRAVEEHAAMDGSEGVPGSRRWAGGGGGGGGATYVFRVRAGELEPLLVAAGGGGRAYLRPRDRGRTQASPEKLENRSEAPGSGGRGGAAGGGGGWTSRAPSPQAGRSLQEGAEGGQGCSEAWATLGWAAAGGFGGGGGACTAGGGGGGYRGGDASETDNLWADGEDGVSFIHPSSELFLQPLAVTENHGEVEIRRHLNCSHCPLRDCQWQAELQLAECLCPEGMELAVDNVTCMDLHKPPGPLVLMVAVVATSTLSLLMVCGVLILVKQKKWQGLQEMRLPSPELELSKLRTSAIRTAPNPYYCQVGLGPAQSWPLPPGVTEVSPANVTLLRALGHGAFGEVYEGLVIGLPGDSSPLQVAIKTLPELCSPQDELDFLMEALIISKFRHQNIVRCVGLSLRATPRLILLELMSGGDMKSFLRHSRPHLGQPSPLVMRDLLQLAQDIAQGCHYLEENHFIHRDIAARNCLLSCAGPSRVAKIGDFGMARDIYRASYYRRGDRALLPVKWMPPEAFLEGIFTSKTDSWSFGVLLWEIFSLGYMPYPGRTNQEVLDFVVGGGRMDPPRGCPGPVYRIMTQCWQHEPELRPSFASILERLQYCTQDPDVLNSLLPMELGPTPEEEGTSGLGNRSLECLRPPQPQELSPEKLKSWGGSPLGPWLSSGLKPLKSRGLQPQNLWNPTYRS
T10 sequence (P11309 whole entry): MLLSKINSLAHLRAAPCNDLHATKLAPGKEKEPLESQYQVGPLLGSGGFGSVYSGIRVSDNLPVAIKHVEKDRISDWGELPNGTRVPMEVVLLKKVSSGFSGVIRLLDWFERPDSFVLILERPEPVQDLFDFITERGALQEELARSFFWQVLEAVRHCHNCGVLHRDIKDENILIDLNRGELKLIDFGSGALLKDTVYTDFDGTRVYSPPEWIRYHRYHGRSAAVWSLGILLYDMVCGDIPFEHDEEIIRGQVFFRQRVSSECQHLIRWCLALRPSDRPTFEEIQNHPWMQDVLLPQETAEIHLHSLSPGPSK

In the case of `COc1ccnc2[nH]cc(-c3cc(N)nc(N)c3)c12` [meriolin 16], the residual kinase activity ([1]; 0.03 µM) is reported as 64 % of control, the residual kinase activity ([1]; 0.3 µM) is reported as 16 % of control and the residual kinase activity ([2]; 0.03 µM) is reported as 38 % of control. The residual kinase activity ([2]; 0.3 µM) was 33 % of control, the residual kinase activity ([3]; 0.03 µM) was 95 % of control and the residual kinase activity ([3]; 0.3 µM) was 51 % of control. The residual kinase activity ([4]; 0.03 µM) was 49 % of control, the residual kinase activity ([4]; 0.3 µM) was 21 % of control and the residual kinase activity ([5]; 0.03 µM) was 49 % of control. The residual kinase activity ([5]; 0.3 µM) was 10 % of control, the residual kinase activity ([6]; 0.03 µM) was 94 % of control and the residual kinase activity ([6]; 0.3 µM) was 61 % of control. For the same molecule, the residual kinase activity ([7]; 0.03 µM) was 110 % of control, the residual kinase activity ([7]; 0.3 µM) was 98 % of control and the residual kinase activity ([8]; 0.03 µM) was 87 % of control. For the same molecule, the residual kinase activity ([8]; 0.3 µM) was 52 % of control, the residual kinase activity ([9]; 0.03 µM) was 86 % of control and the residual kinase activity ([9]; 0.3 µM) was 74 % of control. For the same molecule, the residual kinase activity ([10]; 0.03 µM) was 77 % of control, the residual kinase activity ([10]; 0.3 µM) was 40 % of control and the residual kinase activity ([11]; 0.03 µM) was 92 % of control. For the same molecule, the residual kinase activity ([11]; 0.3 µM) was 76 % of control.

`c1ccc(CNc2cc(-c3c[nH]c4ncccc34)ccn2)cc1` [meriolin 36] was tested, and the residual kinase activity ([1]; 0.3 µM) was 17 % of control, the residual kinase activity ([1]; 3 µM) was 3 % of control and the residual kinase activity ([2]; 0.3 µM) was 29 % of control. The residual kinase activity ([2]; 3 µM) was 13 % of control, the residual kinase activity ([3]; 0.3 µM) was 34 % of control and the residual kinase activity ([3]; 3 µM) was 6 % of control. The residual kinase activity ([4]; 0.3 µM) was 9 % of control, the residual kinase activity ([4]; 3 µM) was 2 % of control and the residual kinase activity ([5]; 0.3 µM) was 47 % of control. For the same molecule, the residual kinase activity ([5]; 3 µM) was 10 % of control, the residual kinase activity ([6]; 0.3 µM) was 40 % of control and the residual kinase activity ([6]; 3 µM) was 6 % of control. The residual kinase activity ([7]; 0.3 µM) was 46 % of control, the residual kinase activity ([7]; 3 µM) was 11 % of control and the residual kinase activity ([8]; 0.3 µM) was 3 % of control. For the same molecule, the residual kinase activity ([8]; 3 µM) was 0 % of control, the residual kinase activity ([9]; 0.3 µM) was 56 % of control and the residual kinase activity ([9]; 3 µM) was 16 % of control. For the same molecule, the residual kinase activity ([10]; 0.3 µM) was 55 % of control, the residual kinase activity ([10]; 3 µM) was 14 % of control and the residual kinase activity ([11]; 0.3 µM) was 30 % of control. For the same molecule, the residual kinase activity ([11]; 3 µM) was 10 % of control.
